# From ChEMBL document CHEMBL5579901, “Discovery of Novel [1,2,4]Triazolo[1,5-a]pyrimidine Derivatives as Novel Potent S-Phase Kinase-Associated Protein 2 (SKP2) Inhibitors for the Treatment of Cancer” (J Med Chem, 2024)
# The source made the active and inactive calls. No cut-off for these calls is given here.
# Tests used:
# MGC-803 [1] = test: Induction of cell cycle arrest in human MGC-803 cells assessed as cells at G0/G1 phase at 15 uM incubated for 6 hrs by PI staining based flow cytometry (reference value: 57.9%); assay type: functional
# MGC-803 [2] = test: Induction of cell cycle arrest in human MGC-803 cells assessed as cells at S phase at 5 uM incubated for 36 hrs by PI staining based flow cytometry (reference value: 18.2%); assay type: functional
# PC-3 [3] = test: Induction of cell cycle arrest in human PC-3 cells assessed as cells at G0/G1 phase at 15 uM incubated for 24 hrs by PI staining based flow cytometry (reference value: 55.1%); assay type: functional
# MGC-803 [4] = test: Upregulation of p21 protein expression in human MGC-803 cells at 5 to 15 uM incubated for 48 hrs by Western blotting analysis; assay type: functional, cell-based; settings: dose 5-15 µM
# MGC-803 [5] = test: Inhibition of colony formation in human MGC-803 cells at 3 uM incubated for 10 days by crystal violet staining based inverted microscopic analysis; assay type: functional, cell-based; settings: time 10.0 day
# MGC-803 [6] = test: Induction of cell cycle arrest in human MGC-803 cells assessed as cells at G2/M phase at 15 uM incubated for 36 hrs by PI staining based flow cytometry (reference value: 20.6%); assay type: functional
# PC-3 [7] = test: Induction of cell cycle arrest in human PC-3 cells assessed as cells at G0/G1 phase at 15 uM incubated for 48 hrs by PI staining based flow cytometry (reference value: 55.1%); assay type: functional
# PC-3 [8] = test: Upregulation of p21 protein expression in human PC-3 cells at 15 uM by Western blotting analysis; assay type: functional, cell-based; settings: time 6-48 hrs, TDE = time-dependent effect
# [9] = Toxicity against NOD-SCID mouse assessed as change in kidney morphology at 25 to 50 mg/kg, IG administered for 21 days by H and E staining based assay; assay type: organism-based; settings: in vivo, po, 504 h, dose 25-50 mg/kg, time 21 day
# [10] = Toxicity against NOD-SCID mouse assessed as change in liver morphology at 25 to 50 mg/kg, IG administered for 21 days by H and E staining based assay; assay type: organism-based; settings: in vivo, po, 504 h, dose 25-50 mg/kg, time 21 day
# PC-3 [11] = test: Induction of cell cycle arrest in human PC-3 cells assessed as cells at G0/G1 phase at 5 uM incubated for 36 hrs by PI staining based flow cytometry (reference value: 54.5%); assay type: functional
# PC-3 [12] = test: Downregulation of SKP2 protein level in human PC-3 cells incubated for 48 hrs by Western blotting analysis; assay type: functional, cell-based; settings: dose 5-15 µM
# MGC-803 [13] = test: Induction of cell cycle arrest in human MGC-803 cells assessed as cells at G2/M phase at 5 uM incubated for 36 hrs by PI staining based flow cytometry (reference value: 20.6%); assay type: functional
# PC-3 [14] = test: Inhibition of cell invasion in human PC-3 cells incubated for 48 hrs by […]; assay type: functional, cell-based; settings: dose 2.5-7.5 µM
# MGC-803 [15] = test: Induction of cell cycle arrest in human MGC-803 cells assessed as cells at G2/M phase at 15 uM incubated for 6 hrs by PI staining based flow cytometry (reference value: 20.8%); assay type: functional
# MGC-803 [16] = test: Inhibition of cell invasion in human MGC-803 cells incubated for 48 hrs by […]; assay type: functional, cell-based; settings: dose 2.5-7.5 µM
# MGC-803 [17] = test: Inhibition of DNA synthesis in human MGC-803 cells incubated for 24 hrs by EdU staining based fluorescence microscopic analysis; assay type: functional, cell-based; settings: dose 2.5-7.5 µM
# PC-3 [18] = test: Induction of cell cycle arrest in human PC-3 cells assessed as cells at G0/G1 phase at 15 uM incubated for 12 hrs by PI staining based flow cytometry (reference value: 55.1%); assay type: functional
# MGC-803 [19] = test: Inhibition of cell proliferation in human MGC-803 cells at 2 to 50 uM by MTT assay; assay type: functional, cell-based; settings: dose 2-50 µM, time 24-72 hrs, TDE = time-dependent effect
# PC-3 [20] = test: Induction of cell cycle arrest in human PC-3 cells assessed as cells at G2/M phase at 15 uM incubated for 48 hrs by PI staining based flow cytometry (reference value: 21.4%); assay type: functional
# [21] = Clearance in Sprague-Dawley rat at 1 mg/kg, iv measured upto 24 hrs by LC/MS-MS analysis; assay type: ADME, organism-based; settings: in vivo
# [22] = Toxicity against NOD-SCID mouse assessed as change in lung morphology at 25 to 50 mg/kg, IG administered for 21 days by H and E staining based assay; assay type: organism-based; settings: in vivo, po, 504 h, dose 25-50 mg/kg, time 21 day
# MGC-803 [23] = test: Induction of cell cycle arrest in human MGC-803 cells assessed as cells at G2/M phase at 15 uM incubated for 12 hrs by PI staining based flow cytometry (reference value: 20.8%); assay type: functional
# MGC-803 [24] = test: Induction of cell cycle arrest in human MGC-803 cells assessed as cells at G0/G1 phase at 15 uM incubated for 36 hrs by PI staining based flow cytometry (reference value: 57.1%); assay type: functional
# MGC-803 [25] = test: Downregulation of SKP2 protein level in human MGC-803 cells incubated for 48 hrs by Western blotting analysis; assay type: functional, cell-based; settings: dose 5-15 µM
# [26] = Volume of distribution at steady state in Sprague-Dawley rat at 1 mg/kg, iv measured upto 24 hrs by LC/MS-MS analysis; assay type: ADME, organism-based; settings: in vivo
# [27] = target: S-phase kinase-associated protein 2 (Homo sapiens) (UniProt Q13309); test: Binding affinity to SKP2 in human PC-3 cells assessed as increase in thermal stability at 57 to 68 degreeC incubated for 4 hrs by CETSA; assay type: cell-based
# S-phase kinase-associated protein 2 (Homo sapiens), sequence (Q13309 whole entry): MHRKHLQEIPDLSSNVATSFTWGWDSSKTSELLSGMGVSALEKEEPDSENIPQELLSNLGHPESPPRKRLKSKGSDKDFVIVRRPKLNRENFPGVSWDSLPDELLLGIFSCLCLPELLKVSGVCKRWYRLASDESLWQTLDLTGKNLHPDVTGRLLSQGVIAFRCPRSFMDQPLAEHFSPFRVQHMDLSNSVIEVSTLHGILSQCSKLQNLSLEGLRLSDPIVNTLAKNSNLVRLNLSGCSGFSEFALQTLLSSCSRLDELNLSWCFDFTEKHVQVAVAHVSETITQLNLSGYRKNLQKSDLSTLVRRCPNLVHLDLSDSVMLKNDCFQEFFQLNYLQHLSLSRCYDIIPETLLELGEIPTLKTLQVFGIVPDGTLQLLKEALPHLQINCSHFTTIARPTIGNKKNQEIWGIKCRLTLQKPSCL
# PC-3 [28] = test: Induction of cell cycle arrest in human PC-3 cells assessed as cells at G2/M phase at 15 uM incubated for 12 hrs by PI staining based flow cytometry (reference value: 21.4%); assay type: functional
# MGC-803 [29] = test: Induction of cell cycle arrest in human MGC-803 cells assessed as cells at G0/G1 phase at 5 uM incubated for 36 hrs by PI staining based flow cytometry (reference value: 57.1%); assay type: functional
# PC-3 [30] = test: Inhibition of cell migration in human PC-3 cells incubated for 48 hrs by wound healing assay; assay type: functional, cell-based; settings: dose 2.5-7.5 µM
# [31] = target: Cyclin-dependent kinases regulatory subunit 1/S-phase kinase-associated protein 2 (Homo sapiens, UniProt Q13309); test: Inhibition of GST-tagged SKP2 (unknown origin) binding to His6-tagged CKS1 (unknown origin) preincubated with SKP2 for 10 mins followed by CKS1 addition for 20 mins and measured after by HTRF method; assay type: protein assay
# Cyclin-dependent kinases regulatory subunit 1/S-phase kinase-associated protein 2, sequence (P61024 whole entry): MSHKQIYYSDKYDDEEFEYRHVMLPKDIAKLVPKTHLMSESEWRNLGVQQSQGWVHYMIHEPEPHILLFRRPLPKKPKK
# Cyclin-dependent kinases regulatory subunit 1/S-phase kinase-associated protein 2, sequence (Q13309 whole entry): as the sequence (Q13309 whole entry) above
# [32] = Toxicity against NOD-SCID mouse assessed as body weight loss at 25 to 50 mg/kg, IG administered for 21 days; assay type: organism-based; settings: in vivo, po, 504 h, dose 25-50 mg/kg, time 21 day
# PC-3 [33] = test: Inhibition of colony formation in human PC-3 cells incubated for 10 days by crystal violet staining based inverted microscopic analysis; assay type: functional, cell-based; settings: dose 1-3 µM, time 10.0 day
# PC-3 [34] = test: Induction of cell cycle arrest in human PC-3 cells assessed as cells at G2/M phase at 15 uM incubated for 36 hrs by PI staining based flow cytometry (reference value: 21.3%); assay type: functional
# MGC-803 [35] = test: Induction of cell cycle arrest in human MGC-803 cells assessed as cells at G0/G1 phase at 15 uM incubated for 48 hrs by PI staining based flow cytometry (reference value: 57.9%); assay type: functional
# PC-3 [36] = test: Induction of cell cycle arrest in human PC-3 cells assessed as cells at G2/M phase at 15 uM incubated for 6 hrs by PI staining based flow cytometry (reference value: 21.4%); assay type: functional
# MGC-803 [37] = test: Induction of cell cycle arrest in human MGC-803 cells assessed as cells at S phase at 15 uM incubated for 48 hrs by PI staining based flow cytometry (reference value: 19.6%); assay type: functional
structure (smiles),measurement,setting,value
COc1ccc(-c2cc(C)nc3nc(SCc4ccc(Br)cc4)nn23)c(OC)c1,Activity,MGC-803 [1],49.7%
same,Activity,MGC-803 [2],26.9%
same,Activity,PC-3 [3],39.3%
same,Activity,MGC-803 [4],Active
same,inhibition,MGC-803 [5],Active
same,Activity,MGC-803 [6],14.4%
same,Activity,PC-3 [7],36.9%
same,Activity,PC-3 [8],Tde
same,Activity,[9],Non-Toxic
same,Activity,[10],Non-Toxic
same,Activity,PC-3 [11],46.9%
same,Activity,PC-3 [12],Dose-Dependent Effect
same,Activity,MGC-803 [13],23.2%
same,inhibition,PC-3 [14],Dose-Dependent Effect
same,Activity,MGC-803 [15],21.9%
same,inhibition,MGC-803 [16],Dose-Dependent Effect
same,inhibition,MGC-803 [17],Dose-Dependent Effect
same,Activity,PC-3 [18],48.3%
same,inhibition,MGC-803 [19],Tde
same,Activity,PC-3 [20],22.5%
same,CL,[21],24 mL/min/kg
same,Activity,[22],Non-Toxic
same,Activity,MGC-803 [23],21.6%
same,Activity,MGC-803 [24],39.3%
same,Activity,MGC-803 [25],Dose-Dependent Effect
same,Vdss,[26],8.87 L/kg
same,Activity,[27],Active
same,Activity,PC-3 [28],18.5%
same,Activity,MGC-803 [29],49.8%
same,inhibition,PC-3 [30],Dose-Dependent Effect
same,IC50,[31],4.86 µM
same,Activity,[32],Non-Toxic
same,inhibition,PC-3 [33],Dose-Dependent Effect
same,Activity,PC-3 [34],16.3%
same,Activity,MGC-803 [35],40.9%
same,Activity,PC-3 [36],20.3%
same,Activity,MGC-803 [37],37.3%
